The values below come from US20100003342A1, “Aqueous solution and method of prolonging life of residual chlorine in aqueous solution” (priority 2006, published 2010).

Where two headings read alike, the source gives them in different places.

The format of the data set is physicochemical. The note with it: KI method.

Regarding `[Na+].[O-][Cl+][O-]` [NaClO2], the Residual chlorine concentration entry (neutral pH environment) is “several”. In the case of `[O-][Cl+3]([O-])([O-])O` [perchloric acid], the Residual chlorine concentration result (perchloric acid aqueous solution) was “zero”.
